Reference: the NIST ThermoML archive (doi:10.1021/je8001464)

Test: mn = molality of the nth substance listed, in mol/kg
Settings: 101 kPa, Liquid

[Cl-].[Cl-].[Zn+2] [zinc chloride] + O
mass density [kg/m3]
Settings	288.15 K	298.15 K	308.15 K	318.15 K
m1 = 0.1	1011.64	1009.38	1005.93	1002.03
m1 = 0.5	1058.86	1055.44	1047.95	1043.29
m1 = 1	1113.88	1106.55	1097.59	1090.83
m1 = 1.5	1160.53	1152.82	1142.54	1135.27

NCC(=O)O [2-aminoacetic acid] + O
Settings	mass density [kg/m3]
288.15 K, m1 = 0.07326	1001.51
288.15 K, m1 = 0.1458	1003.85
288.15 K, m1 = 0.2326	1006.63
288.15 K, m1 = 0.2824	1008.21
288.15 K, m1 = 0.3277	1009.64
288.15 K, m1 = 0.4371	1013.07
298.15 K, m1 = 0.1536	1001.88
298.15 K, m1 = 0.2528	1004.96
298.15 K, m1 = 0.302	1006.47
298.15 K, m1 = 0.3469	1007.84
298.15 K, m1 = 0.4593	1011.25
308.15 K, m1 = 0.07746	993.053
308.15 K, m1 = 0.2534	998.473
308.15 K, m1 = 0.3017	999.939
308.15 K, m1 = 0.3466	1001.29
308.15 K, m1 = 0.4586	1004.65
318.15 K, m1 = 0.1525	994.942
318.15 K, m1 = 0.2564	998.093
318.15 K, m1 = 0.3091	999.679
318.15 K, m1 = 0.3656	1001.36
318.15 K, m1 = 0.4809	1004.79
